Measurements from patent US20100048686A1, “Perfume Composition For Temperature Sense Control, Sense Control Article, Sense Control Method, And Perfume Map” (SHISEIDO CO., LTD., priority 2003, published 2010).

Key:
Assay type in all cases: in vivo, human
[1] = tested on: test subjects; assay: cream temperature sense and usability/skin feel with scented cotton versus no aroma; parameters: key to Absorption into skin / Youthfulness of skin / Stickiness of skin: five-point scale, 5 = I agree to 1 = I disagree; conditions: for effect on temperature sense (raising or lowering) / perceived usability/skin feel, heavy-spreading or light-spreading / perceived usability/skin feel, moist or fresh: result in words; for Skin tightness / Absorption into skin / Cream spreading (heavy) / Cream spreading (light) / Firmness of skin / Non-stickiness of skin / Plumpness of skin / Skin freshness / Skin moistness / Skin smoothness / Skin suppleness / Stickiness of skin / Thickness of cream / Youthfulness of skin / Cream temp. sense (warm) / Cream temp. sense (cold): average; for Skin tightness: five-point scale 5 (I agree) to 1 (I disagree); for Absorption into skin / Cream spreading (heavy) / Cream spreading (light) / Firmness of skin / Non-stickiness of skin / Plumpness of skin / Skin freshness / Skin moistness / Skin smoothness / Skin suppleness / Stickiness of skin / Thickness of cream / Youthfulness of skin: five-point scale 5 to 1; for Cream temp. sense (warm): five-point scale 5 warm to 1 cold; for Cream temp. sense (cold): five-point scale, unscented cream, aroma smelled from cotton
Method: Just as with the survey conducted for temperature sense above, 17 or 18 women 20 to 24 years of age were selected for this test, cotton to which no perfume had been applied was affixed to one arm, and cotton to which perfume had been applied was affixed to the other arm, the arms were each coated with an unscented cream while the subjected smelled the aroma of the cotton, and the subjectively sensed temperature of the cream was assessed on a five-point scale in which 5 was warm, 4 was somewhat warm, 3 was “can't say,” 2 was somewhat cold, and 1 was cold.
Next, the correlation of aroma-induced cosmetic temperature sense, usability, and how the cosmetic actually felt on the skin, and the correlation with the image of the aroma were tested for the above-mentioned 24 different raw material perfumes. […] The aroma image was assessed on a seven-point scale from 0 to 6, while the usability/skin feel was assessed on a five-point scale from 5 (“I agree”) to 1 (“I disagree”). In addition to assessing usability, the impression of the aroma of the perfume was also assessed at the same time. To prevent the perfume from modifying the cream, a method was employed in which the perfume component was not directly added to the cream, but was instead applied to the cotton and smelled.
The following wording was selected for usability/skin feel. • How well a cream spreads: light to heavy • Absorption into the skin: fast to slow • Makes the skin look youthful?: yes to no • Makes the skin feel sticky?: yes to no • Makes the skin feel fresh?: yes to no • Makes the skin feel moist?: yes to no • Makes the skin feel non-sticky?: yes to no • Makes the skin feel smooth?: yes to no • Makes the skin feel supple?: yes to no • Makes the skin feel tight?: yes to no • Each of these was assessed on a five-point-scale. • For impressions of aroma, words that readily express the characteristics of an aroma, and four different words (natural, rich, tender, and sharp) were selected as generic terms from among sensory adjectives and emotional adjectives used to express the five senses. Each generic term encompasses specific aroma impression words. For example, “natural” encompasses impression expressions such as transparent, bright, natural, [3] pure, etc.; “rich” encompasses thick, sultry, mature, glossy, sexy, etc.; “tender” encompasses mild, sweet, gentle, graceful, etc; and “sharp” encompasses bracing, sharp, cool, etc. […] However, the words used to express usability/skin feel and the words used to express impressions of aroma are nothing more than examples, and [the present invention] is not limited to or by these words.

[2] = tested on: test subjects; assay: moisture content of the cheeks (corneometer) with scented cotton under nostrils; conditions: room temperature 23 degrees, humidity 46%
Method: (§1) 12 female test subjects 20 to 24 years of age were asked to wash their face and attach a piece of scented cotton under their nostrils, which was left alone for a few minutes at a room temperature of 23 degrees and a humidity of 46%, after which the moisture content (corneometer) and sebum content (sebumeter) of the cheeks were measured.

[3] = tested on: test subjects; assay: temperature sense of a space (clear boxes with and without aroma); conditions: face put into box with aroma versus box without; FIG. 7; result in words
From the text: Also, it is possible to change the temperature sense of a person located in a specific space by dispersing in that space, by volatilization or another such means, a perfume composition containing the above-mentioned perfume component capable of changing a person's temperature sense, and having the person smell the aroma. To test this, a clear box containing scented paper and another clear box containing unscented paper were readied, and an experiment was conducting by having a test subject put his or her face into each of the boxes and compare the temperature sense of the space. […] FIG. 5 is a graph of the assessment results, and it can be seen that the temperature sense of a person located in a space can be changed by aroma. When the perfume composition is dispersed in the space so that the person will smell it, the concentration of the aroma is preferably about 0.01 to 10 ppm. With peppermint oil, for instance, about 0.4 ppm is favorable. […] The test subject put his or her face into first one box and then the other and compared the temperature sense of the space. This experiment was conducted for three different aromas, namely, peppermint, bergamot, and vanillin. A lid 6 that could be opened and closed was provided to the top of each of the boxes 1 and 2. The test subjects and experiment conditions were the same as discussed above. […]

[4] = tested on: test subjects; assay: sebum content of the cheeks (sebumeter) with scented cotton under nostrils; conditions: room temperature 23 degrees, humidity 46%
Method: as §1

[5] = tested on: test subjects; assay: subjectively sensed temperature of constant-temperature water on the hands while smelling an aroma; conditions: 28° C. water, seven-point scale 7 hot to 1 extremely cold, 12 test subjects
Method: As a result of various research, the inventors discovered that the aroma given off by a specific perfume component can change the temperature subjectively sensed by a person (temperature sense). 12 test subjects put there hands into water held at a constant temperature, and the subjectively sensed temperature of the water was assessed on a seven-point scale in which 7 was hot, 6 was warm, 5 was somewhat warm, 4 was “can't say,” 3 was somewhat cold, 2 was cold, and 1 was extremely cold. The same 12 test subjects were asked to smell a peppermint aroma while once again putting their hands into water held at a constant temperature, and the subjectively sensed temperature of the water was assessed on a seven-point scale. The same experiment was repeated by raising the water temperature one degree at a time, and the testers looked for the temperature at which the assessment given under conditions of smelling the peppermint aroma was the same as the assessment given under conditions of no aroma at 28° C. […]
Also, to examine the change in temperature sense with and without aroma, the 12 test subjects put their hands in water with a temperature of 28° C., and the subjectively sensed temperature was assessed on a seven-point scale in the same manner as above. […]

| Compound | effect on temperature sense (raising or lowering) [1] | perceived usability/skin feel, heavy-spreading or light-spreading [1] | perceived usability/skin feel, moist or fresh [1] | Cream spreading (heavy) [1] | Cream spreading (light) [1] | Thickness of cream [1] | Cream temp. sense (warm) [1] | Cream temp. sense (cold) [1] | other results |
| --- | --- | --- | --- | --- | --- | --- | --- | --- | --- |
| CC1(C)CCCC2(C)C1CCC1(C)OCCC12 (stereo not drawn) [3α,6,6,9α-tetramethyldodecahydronaphtho[2,1-b]furan] | capable of raising temperature sense | light-spreading usability/skin feel | moist usability/skin feel |  |  |  |  |  |  |
| CC1COCc2cc3c(cc21)C(C)(C)C(C)C3(C)C (centres unmarked) [4,6,6,7,8,8-hexamethyl-1,3,4,6,7,8-hexahydrocyclopentabenzopyran] | capable of raising temperature sense | light-spreading usability/skin feel | moist usability/skin feel |  |  |  |  |  |  |
| Cc1ccc2c(c1)OCC(=O)CO2 [7-methyl-3,4-dihydro-(2H)-1,5-benzodioxepin-3-one] | capable of lowering temperature sense | light-spreading usability/skin feel | fresh usability/skin feel |  |  |  |  |  |  |
| CC(C=O)Cc1ccc(C(C)(C)C)cc1 (stereo not drawn) [B, 4-tert-butyl-α-methylhydroxycinnamic aldehyde] | capable of raising temperature sense | light-spreading usability/skin feel | moist usability/skin feel | 2.2 | 3.8 | 2.5 | 3.4 | 2.6 | Skin tightness [1]: 3.3; Absorption into skin [1]: 3.5; Firmness of skin [1]: 2.9; Non-stickiness of skin [1]: 2.5; Plumpness of skin [1]: 2.2; Skin freshness [1]: 3.2; Skin moistness [1]: 3.9; Skin smoothness [1]: 3.8; Skin suppleness [1]: 3.4; Stickiness of skin [1]: 3.1; Youthfulness of skin [1]: 3.8 |
| COc1cc(C=O)ccc1O [C, vanillin] | capable of raising temperature sense |  |  | 3.1 | 2.9 | 2.8 | 4.1 | 1.9 | Moisture content [2]: 69.3 (increase); sense of warmth or cold inside the box [3]: gave a warm sensation; Sebum content [4]: no difference attributable to aroma |
| CC1=CC(C)C(C=O)CC1 (centres unmarked) [E, 2,4-dimethyl-3-cyclohexenyl carboxyaldehyde] | capable of lowering temperature sense | light-spreading usability/skin feel | fresh usability/skin feel | 2.7 | 3.3 | 3.1 | 2.5 | 3.5 | Skin tightness [1]: 2.4; Absorption into skin [1]: 2.9; Firmness of skin [1]: 2.8; Non-stickiness of skin [1]: 2.6; Plumpness of skin [1]: 2.3; Skin freshness [1]: 3.1; Skin moistness [1]: 3.3; Skin smoothness [1]: 3.8; Skin suppleness [1]: 3.4; Stickiness of skin [1]: 3.2; Youthfulness of skin [1]: 3.7 |
| CCCCCCCC1CCC(=O)O1 (centres unmarked) [G, γ-undecalactone] | capable of raising temperature sense |  |  | 2.2 | 3.8 | 2.1 | 3.2 | 2.8 |  |
| CC(C)[C@@H]1CC[C@@H](C)C[C@H]1O [L-menthol] |  |  |  |  |  |  |  |  | subjectively sensed temperature of the water, average assessment [5]: 4.125 |
| O=Cc1ccc2c(c1)OCO2 [heliotropine] | capable of raising temperature sense | light-spreading usability/skin feel | moist usability/skin feel |  |  |  |  |  |  |
| Cc1occc(=O)c1O [maltol] | capable of raising temperature sense |  |  |  |  |  |  |  |  |
| COC(=O)c1ccccc1N=CCC(C)CCCC(C)(C)O (centres unmarked) [methyl-N-3,7-dimethyl-7-hydroxyoctylidene-anthranilate] | capable of lowering temperature sense | heavy-spreading usability/skin feel | fresh usability/skin feel |  |  |  |  |  |  |
| CC(=O)/C=C/C1=C(C)CCCC1(C)C [β-ionone] | capable of raising temperature sense | light-spreading usability/skin feel | moist usability/skin feel |  |  |  |  |  |  |
| L-carvone |  |  |  |  |  |  |  |  | subjectively sensed temperature of the water, average assessment [5]: 4 |
